Experimental findings from patent US11465972B2, “Inhibitors of oxidized low-density lipoprotein receptor 1 and methods of use thereof” (United States Government as represented by the Department …, priority 2015, dated 2022) are described below.

The test system of assay [1] is adhesion of monocytes to HUVECs. The experiment in a line: Monocyte adhesion assay on HUVECs. It is filed as cell-based, human. Particulars: 200 nM; for effect on monocyte adhesion to HUVECs (in words): ox-LDL treated. As to the method: FIG. 4A, FIG. 4B, FIG. 4C, FIG. 4D and FIG. 4E depict the effect of lead molecules on ox-LDL-induced the activation of MAPKs in HUVECs, VCAM-1 expression and monocyte adhesion onto HUVECs. […] (FIG. 4B) Western blot analyses showing phospho-p38MAPK expression in HUVECs following exposure to 200 nM of each compound for 30 min, and subsequently exposed to 5 μg/mL ox-LDL for 6 hours. […] (FIG. 4D) The variation of VCAM-1 mRNA expression levels with different concentrations of the led compounds. The concentrations are indicated on the X-axis and the VCAM-1 mRNA levels are shown on the Y-axis. The plots for all five molecules are shown in separate colors. […] Graphs show data as mean (±SD); n=3 (for Western blot and PCR assays) or n=20 (for monocyte adhesion assay). *P<0.01 vs. control; #P<0.01 or <0.05 vs. ox-LDL group.
The ox-LDL-induced expression of adhesion molecules, such as VCAM-1, facilitates the adhesion of inflammatory cells, such as monocytes.
Human monocytes were isolated from blood from the healthy donors and cultured in DMEM supplemented with 10% FBS. HUVECs were plated into 6-well plates. When the cells reached 70-80% confluence, they were treated with 200 nM of each of 5 molecules for 30 min, and subsequently exposed to […] ox-LDL for 6 h. After washing with PBS, the medium was replaced, and then monocytes ([…]) were added to each well (4 wells/group) onto HUVECs. Thirty minutes later, the medium containing monocytes were aspired and the unattached monocytes were carefully washed out with PBS. Five fields of each well were randomly captured under a microscope. The number of adherent monocyte was counted and averaged.

The test system of a further assay is HUVECs. The assay can be described thus: Dil-ox-LDL uptake by HUVECs (flow cytometry). Type of assay: cell-based, human. Particulars: for effect on ox-LDL uptake by HUVECs (in words): 200 nM compound; for reduction of the uptake of ox-LDL by HUVECs: 200 nM concentration. As to the method:
FIG. 3A, FIG. 3B, FIG. 3C and FIG. 3D depict the inhibitory effect of the lead compounds on Dil-ox-LDL uptake by HUVECs and CHO cells (measured by flow cytometry) and the effect of the lead compounds on ox-LDL-induced LOX-1 mRNA and protein expression. (FIG. 3A) (Upper Panel) Flow cytometry measurements using HUVECs in the presence of the five lead compounds (Mol-1-Mol-5), each a at 200 nM concentration. (Lower Panel) The percentage of internalized ox-LDL. Graphs show data as mean (±SD); n=4. *P<0.01 or <0.05 vs. control. (FIG. 3B) IC50 value for Mol-5. IC50 value (in nM) is based on inhibition of Dil-ox-LDL uptake in CHO cells overexpressing human LOX-1. Graphs show data as mean (±SD); n=5. *P<0.01 or <0.05 vs. control. (FIG. 3C) Western blotting assay showing LOX-1 protein expression in HUVECs following incubation with 200 nM Mol-1 to Mol-5 for 30 min, and subsequently exposure to 5 μg/mL ox-LDL for 6 hours. (FIG. 3D) The variation of LOX-1 mRNA expression levels at different concentrations of the compounds following exposure of HUVECs to 5 μg/mL ox-LDL. The concentrations are indicated on the X-axis and the LOX-1 mRNA levels are shown on the Y-axis. The plots for all the five molecules are shown in separate colors. Graphs show data as mean (±SD); n=3. *P<0.01 vs. control; #P<0.01 vs. ox-LDL group.
For further characterization, human endothelial cells and fluorescently-labeled Dil-ox-LDL were used for measuring initiation of atherogenic process based on interaction of vascular wall with ox-LDL. Ox-LDL uptake by human umbilical vein endothelial cells (HUVECs) was measured after exposure to 200 nM of each compound using flow cytometry. […] The dose response to modulation of ox-LDL uptake by Mol-5 (0, 20, 200 and 2000 nM) was also measured in CHO cells overexpressing human LOX-1. […] A second dose response curve was conducted to narrow in on the effect of lower concentrations of Mol-5 on ox-LDL uptake (FIG. 6A). Using this information the EC50 was estimated to be […] (FIG. 6B).
The primary HUVECs were purchased from ATCC (Manassas, Va.) and cultured in vascular cell basal medium with supplements (including 10 mL fetal bovine serum, 10 mM L-glutamine, 0.5 tg hydrocortisone hem isuccinate, 25 tg ascorbic acid, 2.5 ng rhVEGF, 2.5 ng rhEGF, 2.5 ng rh FGF, 7.5 ng rhIGF-1 and 0.375 units heparin sulfate). Cells from passages 3 and 4 were used in this study.
HUVECs were plated into 6-well plates and cultured until the cells reached 70% confluence. The cells were exposed to […] Dil-ox-LDL for 30 min after treatment with 200 nM of each of 5 molecules for 30 min, and then washed with PBS for 3 times. After washing, the cells were digested with trypsin and washed with PBS, and suspended in 400 tL PBS, and analyzed with a flow-cytometer (Becton Dickinson, Mountain View, Calif.). For further confirm the inhibitory effects of Mol-5 on Dil-ox-LDL uptake, we also measured Dil-ox-LDL uptake by CHO cells after exposure to […] Mol-5 for 30 min. The CHO cells were stably transfected with human LOX-1 cDNA.

“Also recorded” adds a separate entry of the source.

For the molecule `CCOCCCNC(=O)CCN1C(=O)COc2ccccc21` [Mol-1], in assay [1], the “reduction of monocyte adhesion” value is 25% and the “effect on monocyte adhesion to HUVECs (in words)” value (“effect on monocyte adhesion” below) was “decreased the number of monocytes adherent to HUVECs; also recorded: markedly inhibited”. Moreover, in the assay with HUVECs, the “effect on ox-LDL uptake by HUVECs (in words)” value (“effect on ox-LDL uptake” for short) is listed as “moderate inhibitory effect” and the “reduction of the uptake of ox-LDL by HUVECs” value (“reduction … by HUVECs” below) is given as “about 35%”.
Turning to `CC(C)(C)C(=O)NCCc1nc2ccccc2n1Cc1ccccc1F` [Mol-2], the “effect on ox-LDL uptake” value with HUVECs was “no significant effect”.
For `CCCn1c(CCNC(=O)CCCO)nc2ccccc21` [Mol-4], in assay [1], the “reduction of monocyte adhesion” value is listed as 30% and the “effect on monocyte adhesion” value was “decreased the number of monocytes adherent to HUVECs; also recorded: markedly inhibited”. In the assay on HUVECs, the “effect on ox-LDL uptake” value is “significantly and potently inhibited”; the “reduction … by HUVECs” value is on record as 65%.
As to `Cc1cc(C)n(CC(O)COc2ccccc2)n1` (stereo not shown) [Mol-5, 1-(3,5-dimethyl-1H-pyrazol-1-yl)-3-phenoxypropan-2-ol], in assay [1], the “reduction of monocyte adhesion” value is recorded as 35% and the “effect on monocyte adhesion” value is given as “decreased the number of monocytes adherent to HUVECs; also recorded: markedly inhibited”. In the assay with HUVECs, the “effect on ox-LDL uptake” value is “significantly and potently inhibited; also recorded: maximum inhibitory effect”; the “reduction … by HUVECs” value is listed as 80%.
